From patent US9918990B2, “Substituted pyrrolo[2,3-c]pyridines and pyrazolo[3,4-c]pyridines as BET protein inhibitors” (Incyte Corporation, priority 2013, dated 2018)

Key:
BRD4-BD1 = BRD4-BD1 (Homo sapiens (Human), UniProt O60885); assay: BRD4 AlphaScreen assay, BRD4-BD1; type: binding; settings: H4Ac4 peptide, 75 min, room temperature, read-out: BRD4 BD-1 enzyme IC50
Method in brief: (§1)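 AlphaScreen read after 75 min dark incubation at room temperature, inhibitors serially diluted in DMSO and added before other components. IC50 from fit of percent control activity versus log inhibitor concentration.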

BRD4-BD2 = BRD4-BD2 (Homo sapiens (Human), UniProt O60885); assay: BRD4 AlphaScreen assay, BRD4-BD2; type: binding; settings: H4Ac4 peptide, 75 min, room temperature, read-out: BRD4 BD-2 enzyme IC50
Method in brief: as §1

KMS.12.BM cells = assay: KMS.12.BM cell viability assay (Cell Titer-GLO, ATP quantitation); type: cell-based; settings: Homo sapiens, 72 h, 3 days, concentration required for 50% cell death, read-out: KMS cellular IC50
Method: KMS.12.BM cell line (human myeloma) was purchased from JCRB (Osaka, Japan) and maintained in RPMI with 10% FBS culture medium. To measure the cytotoxic activity of the compounds through ATP quantitation, the KMS.12.BM cells are plated in the RPMI culture medium at 5000 cells/well/per 100 μL into a 96-well polystyrene clear black tissue culture plate (Greiner-bio-one through VWR, NJ), in the presence or absence of a concentration range of test compounds. After 3 days, […] Cell Titer-GLO Luminescent (Promega, Madison, Wis.) cell culture agent is added to each well for 10 minutes at room temperature to stabilize the luminescent signal. This determines the number of viable cells in culture based on quantitation of the ATP present, which signals the presence of metabolically active cells. Luminescence is measured with the Top Count 384 (Packard Bioscience through Perkin Elmer, Boston, Mass.). Compound inhibition is determined relative to cells cultured with no drug and the IC50 is reported as the compound concentration required for 50% cell death. IC50 data for the Examples is presented in Table 9 as determined by Assay B1.

C-myc = assay: KMS.12.BM C-myc ELISA assay; type: cell-based; settings: Homo sapiens; KMS.12.BM cells, 2 hours, concentration required for 50% C-myc inhibition
Method: KMS.12.BM cell line (human myeloma) was purchased from JCRB (Osaka, Japan) and maintained in RPMI with 10% FBS culture medium. To measure the C-myc inhibitory activity of the compounds, the KMS.12.BM cells are plated in the RPMI culture medium at 75000 cells/well/per 200 μL into a 96-well flat bottom polystyrene tissue culture plate (Corning through VWR, NJ), in the presence or absence of a concentration range of test compounds. After 2 hours, cell are pelleted and lysed with Cell Extraction Buffer (BioSource, Carlsbad, Calif.) in the presence of protease inhibitors (Life Technologies, Grand Island, N.Y. and Sigma, St Louis, Mo.). Clarified lyses are tested in a C-myc commercial ELISA (Life Technologies, Grand Island, N.Y.). Compound inhibition is determined relative to cells cultured with no drug and the IC50 is reported as the compound concentration required for 50% C-myc inhibition. IC50 data for the Examples is presented in Table 10 as determined by Assay C1.

Compound: Cn1cc(-c2ccc3[nH]c(=O)[nH]c3c2Oc2ccc(F)cc2)c2cc[nH]c2c1=O [Example 24, 4-(4-Fluorophenoxy)-5-(6-methyl-7-oxo-6,7-dihydro-1H-pyrrolo[2,3-c]pyridin-4-yl)-1,3-dihydro-2H-benzimidazol-2-one]
- IC50 (BRD4-BD1): < 0.1 µM
- IC50 (BRD4-BD2): < 0.1 µM
- IC50 (KMS.12.BM cells): ≤ 1 µM
- IC50 (C-myc): ≤ 1 µM

Compound: Cn1cc(-c2ccc3[nH]c(=O)[nH]c3c2Oc2cccc(F)c2)c2cc[nH]c2c1=O [Example 25, 4-(3-Fluorophenoxy)-5-(6-methyl-7-oxo-6,7-dihydro-1H-pyrrolo[2,3-c]pyridin-4-yl)-1,3-dihydro-2H-benzimidazol-2-one]
- IC50 (BRD4-BD1): < 0.1 µM
- IC50 (BRD4-BD2): < 0.1 µM
- IC50 (KMS.12.BM cells): ≤ 1 µM
- IC50 (C-myc): ≤ 1 µM

Compound: Cn1cc(-c2ccc3[nH]c(=O)[nH]c3c2OC2CCCOC2)c2cc[nH]c2c1=O (stereo not drawn) [Example 26, 5-(6-Methyl-7-oxo-6,7-dihydro-1H-pyrrolo[2,3-c]pyridin-4-yl)-4-(tetrahydro-2H-pyran-3-yloxy)-1,3-dihydro-2H-benzimidazol-2-one]
- IC50 (BRD4-BD1): < 0.1 µM
- IC50 (BRD4-BD2): < 0.1 µM
- IC50 (KMS.12.BM cells): ≤ 1 µM
- IC50 (C-myc): ≤ 1 µM

Compound: Cn1cc(-c2ccc3c([nH]c(=O)n3C)c2OCc2ccccc2)c2cc[nH]c2c1=O [Example 27, 4-(Benzyloxy)-1-methyl-5-(6-methyl-7-oxo-6,7-dihydro-1H-pyrrolo[2,3-c]pyridin-4-yl)-1,3-dihydro-2H-benzimidazol-2-one]
- IC50 (BRD4-BD1): 0.1 to 1 µM
- IC50 (BRD4-BD2): < 0.1 µM
- IC50 (KMS.12.BM cells): ≤ 1 µM
- IC50 (C-myc): ≤ 1 µM

Compound: Cn1cc(-c2ccc3c([nH]c(=O)n3C)c2OCc2ccc(F)cc2F)c2cc[nH]c2c1=O [Example 28, 4-[(2,4-Difluorobenzyl)oxy]-1-methyl-5-(6-methyl-7-oxo-6,7-dihydro-1H-pyrrolo[2,3-c]pyridin-4-yl)-1,3-dihydro-2H-benzimidazol-2-one]
- IC50 (BRD4-BD1): 0.1 to 1 µM
- IC50 (BRD4-BD2): < 0.1 µM
- IC50 (KMS.12.BM cells): ≤ 1 µM
- IC50 (C-myc): 1 to 10 µM

Compound: Cn1cc(-c2ccc3c([nH]c(=O)n3C)c2OC2CCOCC2)c2cc[nH]c2c1=O [Example 29, 1-Methyl-5-(6-methyl-7-oxo-6,7-dihydro-1H-pyrrolo[2,3-c]pyridin-4-yl)-4-(tetrahydro-2H-pyran-4-yloxy)-1,3-dihydro-2H-benzimidazol-2-one]
- IC50 (BRD4-BD1): < 0.1 µM
- IC50 (BRD4-BD2): < 0.1 µM
- IC50 (KMS.12.BM cells): ≤ 1 µM
- IC50 (C-myc): ≤ 1 µM

Compound: Cn1cc(-c2ccc3ncn(CC(=O)N4CCOCC4)c3c2Oc2ccc(F)cc2F)c2cc[nH]c2c1=O [Example 30, 4-[7-(2,4-Difluorophenoxy)-1-(2-morpholin-4-yl-2-oxoethyl)-1H-benzimidazol-6-yl]-6-methyl-1,6-dihydro-7H-pyrrolo[2,3-c]pyridin-7-one]
- IC50 (BRD4-BD1): < 0.1 µM
- IC50 (BRD4-BD2): < 0.1 µM
- IC50 (KMS.12.BM cells): ≤ 1 µM
- IC50 (C-myc): ≤ 1 µM

Compound: Cn1cc(-c2ccc3c(ncn3CC(=O)N3CCOCC3)c2Oc2ccc(F)cc2F)c2cc[nH]c2c1=O [Example 31, 4-[4-(2,4-difluorophenoxy)-1-(2-morpholin-4-yl-2-oxoethyl)-1H-benzimidazol-5-yl]-6-methyl-1,6-dihydro-7H-pyrrolo[2,3-c]pyridin-7-one]
- IC50 (BRD4-BD1): < 0.1 µM
- IC50 (BRD4-BD2): < 0.1 µM
- IC50 (KMS.12.BM cells): ≤ 1 µM
- IC50 (C-myc): ≤ 1 µM

Compound: COc1c(-c2cn(C)c(=O)c3[nH]ccc23)ccc2c1[nH]c(=O)n2C [Example 32, 4-Methoxy-1-methyl-5-(6-methyl-7-oxo-6,7-dihydro-1H-pyrrolo[2,3-c]pyridin-4-yl)-1,3-dihydro-2H-benzimidazol-2-one]
- IC50 (BRD4-BD1): 0.1 to 1 µM
- IC50 (BRD4-BD2): < 0.1 µM
- IC50 (KMS.12.BM cells): ≤ 1 µM
- IC50 (C-myc): ≤ 1 µM

Compound: CN(C)C(=O)Cn1cnc2c(Oc3ccc(F)cc3F)c(-c3cn(C)c(=O)c4[nH]ccc34)ccc21 [Example 34, 2-[4-(2,4-difluorophenoxy)-5-(6-methyl-7-oxo-6,7-dihydro-1H-pyrrolo[2,3-c]pyridin-4-yl)-1H-benzimidazol-1-yl]-N,N-dimethylacetamide]
- IC50 (BRD4-BD1): < 0.1 µM
- IC50 (BRD4-BD2): < 0.1 µM
- IC50 (KMS.12.BM cells): ≤ 1 µM
- IC50 (C-myc): ≤ 1 µM

Compound: CNC(=O)Cn1cnc2c(Oc3ccc(F)cc3F)c(-c3cn(C)c(=O)c4[nH]ccc34)ccc21 [Example 36, 2-[4-(2,4-difluorophenoxy)-5-(6-methyl-7-oxo-6,7-dihydro-1H-pyrrolo[2,3-c]pyridin-4-yl)-1H-benzimidazol-1-yl]-N-methylacetamide]
- IC50 (BRD4-BD1): < 0.1 µM
- IC50 (BRD4-BD2): < 0.1 µM
- IC50 (KMS.12.BM cells): ≤ 1 µM
- IC50 (C-myc): ≤ 1 µM

Compound: Cn1cc(-c2ccc3c([nH]c(=O)n3C)c2OCC2CCC2)c2cc[nH]c2c1=O [Example 37, 4-(Cyclobutylmethoxy)-1-methyl-5-(6-methyl-7-oxo-6,7-dihydro-1H-pyrrolo[2,3-c]pyridin-4-yl)-1,3-dihydro-2H-benzimidazol-2-one]
- IC50 (BRD4-BD1): < 0.1 µM
- IC50 (BRD4-BD2): < 0.1 µM
- IC50 (KMS.12.BM cells): ≤ 1 µM
- IC50 (C-myc): ≤ 1 µM

Compound: Cn1cc(-c2ccc3c([nH]c(=O)n3C)c2Oc2ccccc2)c2cc[nH]c2c1=O [Example 38, 1-Methyl-5-(6-methyl-7-oxo-6,7-dihydro-1H-pyrrolo[2,3-c]pyridin-4-yl)-4-phenoxy-1,3-dihydro-2H-benzimidazol-2-one]
- IC50 (BRD4-BD1): < 0.1 µM
- IC50 (BRD4-BD2): < 0.1 µM
- IC50 (KMS.12.BM cells): ≤ 1 µM
- IC50 (C-myc): ≤ 1 µM

Compound: Cn1cc(-c2ccc3c([nH]c(=O)n3C)c2Oc2ccccc2F)c2cc[nH]c2c1=O [Example 39, 4-(2-Fluorophenoxy)-1-methyl-5-(6-methyl-7-oxo-6,7-dihydro-1H-pyrrolo[2,3-c]pyridin-4-yl)-1,3-dihydro-2H-benzimidazol-2-one]
- IC50 (BRD4-BD1): < 0.1 µM
- IC50 (BRD4-BD2): < 0.1 µM
- IC50 (KMS.12.BM cells): ≤ 1 µM
- IC50 (C-myc): ≤ 1 µM

Compound: Cn1cc(-c2ccc3c([nH]c(=O)n3C)c2Oc2cccc(F)c2)c2cc[nH]c2c1=O [Example 40, 4-(3-Fluorophenoxy)-1-methyl-5-(6-methyl-7-oxo-6,7-dihydro-1H-pyrrolo[2,3-c]pyridin-4-yl)-1,3-dihydro-2H-benzimidazol-2-one]
- IC50 (BRD4-BD1): < 0.1 µM
- IC50 (BRD4-BD2): < 0.1 µM
- IC50 (KMS.12.BM cells): ≤ 1 µM
- IC50 (C-myc): ≤ 1 µM

Compound: Cn1cc(-c2ccc3c([nH]c(=O)n3C)c2Oc2ccc(F)cc2)c2cc[nH]c2c1=O [Example 41, 4-(4-Fluorophenoxy)-1-methyl-5-(6-methyl-7-oxo-6,7-dihydro-1H-pyrrolo[2,3-c]pyridin-4-yl)-1,3-dihydro-2H-benzimidazol-2-one]
- IC50 (BRD4-BD1): < 0.1 µM
- IC50 (BRD4-BD2): < 0.1 µM
- IC50 (KMS.12.BM cells): ≤ 1 µM
- IC50 (C-myc): ≤ 1 µM

Compound: Cn1cc(-c2ccc3ncn(CCN4CCOCC4)c3c2Oc2ccccc2)c2cc[nH]c2c1=O [Example 42, 6-Methyl-4-[1-(2-morpholin-4-ylethyl)-7-phenoxy-1H-benzimidazol-6-yl]-1,6-dihydro-7H-pyrrolo[2,3-c]pyridin-7-one]
- IC50 (BRD4-BD1): < 0.1 µM
- IC50 (BRD4-BD2): < 0.1 µM
- IC50 (KMS.12.BM cells): ≤ 1 µM
- IC50 (C-myc): ≤ 1 µM

Compound: Cn1cc(-c2ccc3c(ncn3CCN3CCOCC3)c2Oc2ccccc2)c2cc[nH]c2c1=O [Example 43, 6-methyl-4-[1-(2-morpholin-4-ylethyl)-4-phenoxy-1H-benzimidazol-5-yl]-1,6-dihydro-7H-pyrrolo[2,3-c]pyridin-7-one]
- IC50 (BRD4-BD1): < 0.1 µM
- IC50 (BRD4-BD2): < 0.1 µM
- IC50 (KMS.12.BM cells): ≤ 1 µM
- IC50 (C-myc): ≤ 1 µM

Compound: Cn1cc(-c2ccc3ncn(Cc4ccccc4)c3c2Oc2ccccc2)c2cc[nH]c2c1=O [Example 45, 4-(1-Benzyl-7-phenoxy-1H-benzimidazol-6-yl)-6-methyl-1,6-dihydro-7H-pyrrolo[2,3-c]pyridin-7-one]
- IC50 (BRD4-BD1): < 0.1 µM
- IC50 (BRD4-BD2): < 0.1 µM
- IC50 (KMS.12.BM cells): ≤ 1 µM
- IC50 (C-myc): ≤ 1 µM

Compound: Cn1cc(-c2ccc3c(ncn3Cc3ccccc3)c2Oc2ccccc2)c2cc[nH]c2c1=O [Example 46, 4-(1-Benzyl-4-phenoxy-1H-benzimidazol-5-yl)-6-methyl-1,6-dihydro-7H-pyrrolo[2,3-c]pyridin-7-one]
- IC50 (BRD4-BD1): < 0.1 µM
- IC50 (BRD4-BD2): < 0.1 µM
- IC50 (KMS.12.BM cells): ≤ 1 µM
- IC50 (C-myc): ≤ 1 µM

Compound: Cn1cc(-c2ccc3ncn(CCc4ccccc4)c3c2Oc2ccccc2)c2cc[nH]c2c1=O [Example 47, 6-Methyl-4-[7-phenoxy-1-(2-phenylethyl)-1H-benzimidazol-6-yl]-1,6-dihydro-7H-pyrrolo[2,3-c]pyridin-7-one]
- IC50 (BRD4-BD1): < 0.1 µM
- IC50 (BRD4-BD2): < 0.1 µM
- IC50 (KMS.12.BM cells): ≤ 1 µM
- IC50 (C-myc): ≤ 1 µM
